In patent publication US7781565B2 (priority 2006, dated 2010):
Entries after “also recorded” stand apart in the source; their conditions may differ.

system: NCI-60 cell lines; format: cell-based, human

| Substance | Cell Line (NCI-60 cell line the peptide and its motif are associated with) | Cell Line the peptide is associated with (peptide recovered from phage library selection on this NCI-60 cell line) | Cell Line with which the peptide (and its tripeptide motif) is associated | Cell Line (NCI-60 cell line the peptide is associated with) |
| --- | --- | --- | --- | --- |
| SDLGLRR | DU-145 Prostate |  |  |  |
| ARLSLEL |  | TK-10 Renal |  |  |
| ARLRASR | PC3 Prostate |  |  |  |
| IYPGAVL | OVCAR-5 Ovarian |  |  |  |
| RRHGLLS |  |  | K-562-Leukemia |  |
| IGAASWF |  | MCF-7 Breast |  |  |
| GLRPHGA | UACC 257 Melanoma |  |  |  |
| RASCVWR | DU-145 Prostate |  |  |  |
| VMPGSVV |  |  |  | SF-295 CNS |
| GGRSWVN |  |  | RPMI-8226-Leukemia |  |
| GGGLPVD |  | MDA-MB-231 Breast |  |  |
| LLRGLEL |  |  | HL-60-Leukemia |  |
| GQGAASL |  |  | H522-Lung |  |
| RGSPLTK | UACC 257 Melanoma |  |  |  |
| WLLSARL |  |  |  | HCC-2998-Colon |
| LHAGSSV |  | MDA-MB-231 Breast |  |  |
| LRVYGEG |  |  |  | SNB-75 CNS |
| VNLGGSW |  |  | H322-Lung |  |
| GKGMGLG | OVCAR-5 Ovarian |  |  |  |
| LLRGLRP |  | TK-10 Renal |  |  |
| GEALGLG | SK-MEL-2 Melanoma |  |  |  |
| RRGSVAE |  | HS 578 T Breast |  |  |

| Substance | Cell Line (NCI-60 cell line the peptide and its motif are associated with) | Cell Line the peptide is associated with (peptide recovered from phage library selection on this NCI-60 cell line) | Cell Line with which the peptide (and its tripeptide motif) is associated | Cell Line (NCI-60 cell line the peptide is associated with) |
| --- | --- | --- | --- | --- |
| GRGVLAF |  |  |  | KM-12C Colon |
| LGASLLV |  | RXF393 Renal |  |  |
| LGLRGWT |  | ACHN Renal |  |  |
| SRLSYWQ |  |  |  | LOX-IMVI Melanoma |
| LVSTSNR | SK-MEL-2 Melanoma |  |  |  |
| WSISGSV |  | MDA-MB-231 Breast |  |  |
| SSRPGSS |  |  | Hop-62-Lung |  |
| LLLLSGS |  | RXF393 Renal |  |  |
| PPGASLY | M14 Melanoma |  |  |  |
| RSGSSVY |  |  | H23-Lung |  |
| GSNGSSH | OVCAR-8 Ovarian |  |  |  |
| AARGLEA |  |  |  | COLO-205-Colon |
| ALNRGSR |  | MDA-MB-231 Breast |  |  |
| HSESAAV |  |  | Hop-62-Lung |  |
| ARGTMTG |  | ACHN Renal |  |  |
| TDGVRAF | UACC 257 Melanoma |  |  |  |
| FSKMRAS | DU-145 Prostate |  |  |  |
| RGVVSAK |  |  | Hop-92-Lung |  |
| SRLRAGS |  | T-47D Breast |  |  |
| GPSVLDI | OVCAR-8 Ovarian |  |  |  |
| LRGSVGR | SK-MEL-28 Melanoma |  |  |  |
| GLVKLRS |  | MCF-7 Breast |  |  |

| Substance | Cell Line (NCI-60 cell line the peptide and its motif are associated with) | Cell Line the peptide is associated with (peptide recovered from phage library selection on this NCI-60 cell line) | Cell Line with which the peptide (and its tripeptide motif) is associated | Cell Line (NCI-60 cell line the peptide is associated with) |
| --- | --- | --- | --- | --- |
| YGIGVRL |  |  | H23-Lung |  |
| AGSVDLV | SK-MEL-5 Melanoma |  |  |  |
| LVSSGSK |  |  | HL-60-Leukemia |  |
| LLSRRVG |  |  |  | SNB-75 CNS |
| CQGLVLQ |  |  | K-562-Leukemia |  |
| LRVPGGP |  |  |  | KM-12C Colon |
| GSGSSSR |  | TK-10 Renal |  |  |
| DLGLRPV |  |  | Molt-4-Leukemia |  |
| GAVRARL |  |  | SR Leukemia |  |
| HQAGGVT | UACC62 Melanoma |  |  |  |
| PRASSTG |  | SN12C Renal |  |  |
| AARGVMV | SK-MEL-2 Melanoma |  |  |  |
| TYCDRAV |  | BT-549 Breast |  |  |
| LQRGVAR | OVCAR-5 Ovarian |  |  |  |
| AVLVAGG |  |  | CCRF-CEM Leukemia |  |
| GRLAVVA |  |  |  | HT-29 Colon |
| GGVSPVD |  |  | A549-Lung |  |
| GGVLYLE |  |  | H226-Lung |  |
| TTGSVIV |  |  | H23-Lung |  |
| AARGELR | UACC62 Melanoma |  |  |  |
| FVDIAGS |  |  | H23-Lung |  |
| AWRHAGG |  |  |  | SNB-19 CNS; also recorded: SF-539 CNS |

| Substance | Cell Line (NCI-60 cell line the peptide and its motif are associated with) | Cell Line the peptide is associated with (peptide recovered from phage library selection on this NCI-60 cell line) | Cell Line with which the peptide (and its tripeptide motif) is associated | Cell Line (NCI-60 cell line the peptide is associated with) |
| --- | --- | --- | --- | --- |
| VGVMGGR |  | CAIK-1 Renal |  |  |
| SAGSHPA |  | SN12C Renal |  |  |
| SAGVSDS | SK-MEL-2 Melanoma |  |  |  |
| RSSPVWT |  |  |  | SW620-Colon |
| GRLRLTD |  |  | HL-60-Leukemia |  |
| AGSMMEF | OVCAR-3 Ovarian |  |  |  |
| LRSSLVS |  | RXF393 Renal |  |  |
| IGRLLPL |  |  | HL-60-Leukemia |  |
| AGGQSER |  |  | H226-Lung |  |
| RRSGLGD |  |  |  | HCC-2998-Colon |
| HRGGSQS |  |  | Molt-4-Leukemia |  |
| AGRICEG |  |  | CCRF-CEM Leukemia |  |
| SGSGCVF | PC3 Prostate |  |  |  |
| HGGRYRH | UACC 257 Melanoma |  |  |  |
| LLRLSLA |  |  | H23-Lung |  |
| AVGRGSG |  |  | Hop-92-Lung |  |
| PWGAGVR |  | BT-549 Breast |  |  |
| GGAGRGA | OVCAR-4 Ovarian |  |  |  |
| GRLYYYR |  |  | RPMI-8226-Leukemia |  |
| VRVSLNS |  | MDA-MB-231 Breast |  |  |
| GGRSSHP |  |  | Molt-4-Leukemia |  |
| KSGLRPA |  |  | EKVX-Lung |  |

| Substance | Cell Line (NCI-60 cell line the peptide and its motif are associated with) | Cell Line the peptide is associated with (peptide recovered from phage library selection on this NCI-60 cell line) | Cell Line with which the peptide (and its tripeptide motif) is associated | Cell Line (NCI-60 cell line the peptide is associated with) |
| --- | --- | --- | --- | --- |
| GRGSFES |  |  | SR Leukemia |  |
| GTLGVLS | UACC62 Melanoma |  |  |  |
| NPGLVWN |  | MDA-MB-231 Breast |  |  |
| GRLYLGI |  |  |  | SF-295 CNS |
| LRFRRGV | PC3 Prostate |  |  |  |
| AECCGGL |  | ACHN Renal |  |  |
| TRASRRG |  |  |  | SNB-75 CNS |
| RVGRGVL |  |  |  | SF-268 CNS |
| GLGLRLG | OVCAR-8 Ovarian |  |  |  |
| HGRLAFG | SK-MEL-28 Melanoma |  |  |  |
| WSATGVS |  | HS 578 T Breast |  |  |
| WDQGSGY | OVCAR-4 Ovarian |  |  |  |
| TATGGLL | OVCAR-8 Ovarian |  |  |  |
| AGRPGGY | PC3 Prostate |  |  |  |
| LGSSGLR |  | RXF393 Renal |  |  |
| GVLSDRS | SK-MEL-2 Melanoma |  |  |  |
| RGRGSTL |  | MDA-MB-435-Breast |  |  |
| LIGGVLH | IGROV1 Ovarian |  |  |  |
| RRSSKQA |  |  | A549-Lung |  |
| ARGSLRV |  |  |  | SNB-19 CNS; also recorded: SF-539 CNS |
| GLGVSGV |  |  | Hop-62-Lung |  |
| HGGSNDR |  | A498 Renal |  |  |

| Substance | Cell Line (NCI-60 cell line the peptide and its motif are associated with) | Cell Line the peptide is associated with (peptide recovered from phage library selection on this NCI-60 cell line) | Cell Line with which the peptide (and its tripeptide motif) is associated | Cell Line (NCI-60 cell line the peptide is associated with) |
| --- | --- | --- | --- | --- |
| RGAVAFE |  |  | SR Leukemia |  |
| ALVSFSV |  |  | EKVX-Lung |  |
| GLLSLXL |  |  | CCRF-CEM Leukemia |  |
| SWRPLVS |  |  | Hop-62-Lung |  |
| GRGVTIW |  |  |  | HT-29 Colon |
| LGRVHVW |  |  |  | HT-29 Colon |
| LRVSNPR | UACC62 Melanoma |  |  |  |
| SGVGSSL |  |  | EKVX-Lung |  |
| GAGSFSS | SK-MEL-2 Melanoma |  |  |  |
| VMGGPSL |  |  | Hop-62-Lung |  |
| GVWLRGS |  | RXF393 Renal |  |  |
| THVGGVR | OVCAR-8 Ovarian |  |  |  |
| GAGSSVW |  | CAIK-1 Renal |  |  |
| GVAIGRL |  | CAIK-1 Renal |  |  |
| FGGSGRG |  |  |  | LOX-IMVI Melanoma |
| LARGVPP | M14 Melanoma |  |  |  |
| RAGSRVQ |  |  |  | SF-295 CNS |
| GLWYRAV | SK-MEL-28 Melanoma |  |  |  |
| GGSRLLL |  |  | RPMI-8226-Leukemia |  |
| GTLRVGS |  |  |  | HT-29 Colon |
| NAASLPS |  |  | SR Leukemia |  |
| GVRTAGP |  |  | A549-Lung |  |
